Tests used:
Aiolos, Ikaros = test: FFPE IHC for Aiolos and Ikaros in WSU-DLCL2 xenograft tumors; format: in vivo; conditions: WSU-DLCL2 xenograft SCID mice, 30 mg/kg qd
Experimental: WSU-DLCL2 xenograft SCID mice can be prepared using methods known in the art. In brief, female CB17 severe combined immunodeficiency (SCID) mice (6-12 weeks old) are obtained from the Charles River Laboratory (Wilmington, Mass.) and maintained in microisolator cages under sterile conditions. A total of 10×10^6 WSU-DLCL2 DLBCL cells in 100% Matrigel® (Becton Dickinson, San Jose, Calif.) are injected subcutaneously into the right flank of mice. Mice are monitored 2 or 3 times a week for the appearance of tumors.
WSU-DLCL2 xenograft SCID mice (a human tumor xenograft model) were treated with either vehicle or 30 mg/kg Compound A q.d. Tumor samples were harvested at 1 hour, 6 hours, or 24 hours after the last dose.
Immunohistochemistry was performed using standard methods. For example, immunohistochemistry is performed on the Bond-Max™ automated slide stainer (Leica Microsystems) using the associated Bond™ Polymer Refine Detection Kit. Four micron thick FFPE sections are deparaffinized on the instrument. Antigen retrieval is performed with Epitope Retrieval™ 2 (pH 9.0) for 20 minutes at 100° C. The slides are blocked for endogenous peroxidase activity with Peroxide Block for 5 minutes at room temperature. […]

[1] = system: DLBCL cell lines (GCB and ABC); test: tritiated thymidine incorporation proliferation assay; format: cell-based
Experimental: Cells were then cultured for 3 days at 37° C. Tritiated thymidine was applied to the cell culture for the final 6 hours and cells were then harvested onto filter plates. After the plates have dried, scintillation fluid was added to the plates and read on a Top-count reader.
The cells were then analyzed for proliferation using a ^3H-thymidine incorporation assay.
Proliferation was assessed through tritiated thymidine incorporation.

[2] = system: TMD8 (ABC) or Karpas 422 (GCB) cells; test: competition with lenalidomide for CRBN, 3H-thymidine proliferation; format: cell-based; conditions: TMD8 or Karpas 422; co-treatment with 10 μM lenalidomide; competition of binding to the CRBN complex
Aiolos = test: Western blot of Aiolos in GCB and ABC cell lines, 24 or 72 hours; format: cell-based; conditions: ABC and GCB DLBCL cell lines
Experimental: Aiolos or β-actin (control) protein levels were analyzed by Western blotting, essentially as described in Section 6.8.

ABC-DLBCL cell line = test: Tandem Mass Tag proteomics, lenalidomide vs Compound A; format: cell-based; conditions: 24 h
Text: Cells were harvested and proteins were fractionated using a basic pH reverse gradient method. Fractionated samples were labeled using a Tandem Mass Tag method.

Aiolos, Ikaros, ZFP91 = test: CRBN dependence of ZFP91 reduction in U266 cells, Western blot; format: cell-based; conditions: 6 hour
Experimental: U266 cells were transduced with inducible shRNA constructs targeting CRBN or targeting luciferase as control. Cells were grown in the presence or in the absence of 10 ng/ml Doxycycline, and in the presence or in the absence of 1 μM pomalidomide. Cells were harvested and were treated in cell lysis buffer to generate cell lysates. Proteins from cell lysate were separated by gel electrophoresis and transferred to nitrocellulose membranes. Immunoblots were then probed with antibodies recognizing Aiolos, CRBN, Ikaros, ZFP91, IRF4, IFIT1, IFIT3, P-STAT1, and β-actin (Li-Cor).
Cells were harvested, and lysates were run on 10% SDS-PAGE and immunoblotted with the appropriate antibodies.
MG132 activates c-Jun N-terminal kinase (JNK1), which initiates apoptosis. […] MLN4924 is a NAE1 inhibitor that blocks the activity of Cullin Ring Ligases (CRLs), such as CRL4^CRBN. […] Cells were harvested and lysates were run on 10% SDS-PAGE, transferred to nitrocellulose and immunoblotted with the corresponding antibodies.

[3] = 3 days, tritiated thymidine incorporation

## Cc1nc2cccc(N)c2c(=O)n1C1CCC(=O)NC1=O (stereo not shown) [Compound A, 3-(5-amino-2-methyl-4-oxo-4H-quinazolin-3-yl)-piperidine-2,6-dione]
Aiolos, Ikaros
  time to Aiolos and Ikaros degradation in tumor: ≤ 6 h
[1]
  sensitivity of ABC DLBCL cell lines: sensitive
[1]; [3]
  activity in some GCB DLBCL compared to lenalidomide (proliferation): Differential activity
  potency in ABC DLBCL (proliferation): more potent than lenalidomide
[2]
  anti-proliferative effects on co-treatment with lenalidomide: blocks anti-proliferative effects of Compound A
Aiolos
  Aiolos protein levels: decrease in a dose-dependent manner
ABC-DLBCL cell line; 10 uM each, log2 ratios vs DMSO
  overall effect on protein abundance compared to lenalidomide: generally stronger effect
ABC-DLBCL cell line; 10 uM each, r2=0.752, intercept 0.03
  gradient of regression line, log2 ratios of lenalidomide and Compound A plotted against each other: 1.45
ABC-DLBCL cell line; ABC-DLBCL cell line, 10 uM, vs DMSO
  effect on CSNK1A1 protein: does not appear to affect
Aiolos, Ikaros, ZFP91
  destruction of Aiolos, Ikaros, and ZFP91 (CRBN dependent pathway): induced

Reference: patent publication US10996215B2, “Methods for determining drug efficacy for the treatment of diffuse large B-cell lymphoma, multiple myeloma, and myeloid cancers” (CELGENE CORPORATION, priority 2013, dated 2021)
